Experimental data as given in the NIST ThermoML archive (doi:10.1021/acs.jced.6b00048).
± gives the expanded uncertainty stated by the source.

Assay: wn = mass fraction of the nth substance listed
Conditions: 100 kPa, Liquid, Vibrating tube method, w1 = 0.5821

mass density (288.15 K): 1702.7 ± 6.9 kg/m3
mass density (298.15 K): 1692.5 ± 6.9 kg/m3
mass density (323.15 K): 1666.6 ± 6.7 kg/m3
Structure (SMILES): [Cl-].[Cl-].[Zn+2] [zinc chloride] + O
